Assay results taken from patent US9828333B2, “Compounds for the treatment of influenza” (CHRISTIAN-ALBRECHTS-UNIVERSITAT ZU KIEL, priority 2011, dated 2017).
Where “and” joins values, the source holds several entries; their conditions need not be identical. Equal entries are not always repeated.

Legend:
[1] = in vivo; settings: Sprague Dawley, rat, in vivo, po, 50 mg/kg
Protocol: Sprague Dawley (SD) rats were supplied for habitation 10 days before the start of the experiment, weighing ˜300-350 g and kept in an air conditioned room with a constant temperature of 20° C. and a humidity of 50%. In this room there was a day-night rhythm of twelve hours. The dark phase began daily at 18 o'clock and turned over to the light phase at 6 clock. The rats were kept over the acclimatization period in standard cages of the size 3 (length: 42 cm, width 26 cm, height: 15 cm) and transferred three days before commencement of an experiment into a special experimental room, placed in the identical environmental conditions. They received a maintenance diet (maintenance diet for rats and mice; No. 1320; Altromin) and tap water ad libitum.
A catheter was implanted in the vein as well as in the arteria femoralis of rats receiving an i.v. administration. Rats receiving only oral administration of substances received a […] catheter only.
The catheterized animals were kept after surgery for a day in the experimental room and individually in their experimental cages. The application of the test compounds was carried out on the second day after the operation. On the experimental day, the rats were weighed one hour prior to the test and the arterial catheter was flushed with 300 μl of heparin solution. Subsequently, the i.v. or oral administration of the compounds was carried out.
The oral administrations were performed as a suspension or solution made with gum arabic (10% w/v) by gavage.
The oral administrations were made as suspension or solution with gum arabic (10% w/v) by gavage.
After i.v. administration, plasma samples were taken at 5, 10, 20, 45, 90, 150, 240 and 360 min, respectively after oral administration after 30, 60, 90, 120, 180, 240 and 360 min. To this, in each case 300 μl of whole blood were taken using an insulin syringe and transferred into EDTA-coated Microvettes CB 300 (Sarstedt, Nümbrecht). After each withdrawal it was rinsed with 100 μl 0.9% saline or every 60 min with heparin solution (250 IU/ml). The blood sample was shaken briefly and put until centrifugation (4° C.; 14000 U/min; 10 min) on ice. Subsequently, the samples were frozen at −80° C.
The plasma samples were processed and analyzed by HPLC. Therefor, the plasma samples were thawed at room temperature. In each case, 80 μl methanol (+0.2% TFA) were prepared and subsequently 80 μl of the plasma samples were pipetted into. The samples were shaken for 45 min to precipitate plasma proteins. The samples were frozen at −80° C., thawed and shaken for another 15 min. The samples were centrifuged for 15 min at 13.000 RPM and the supernatant was transferred into HPLC vials. In each case 50 μl were used for the determinations by LC/MS.
The animal studies were evaluated using the following LC/MS method.

[2] = target: albumin (Homo sapiens, UniProt P02768); type: in vitro ADME; settings: 4% albumin solution, average of three concentrations (10, 25, 50 μM)
Protocol: 3. Determination of Protein Binding of the Amidine Effective Form (3) as Well as of Prodrugs Thereof (2, 4) and of the Guanidine Effective Form (9) as Well as of Prodrugs Thereof (6, 10)
The plasma protein binding was carried out in three different concentrations (10, 25, and 50 μM). A 4% albumin solution was used as protein solutions. In each case, 50 μl of a 10-fold concentrated substance solution were pipetted in 450 μl of the protein solution. The incubation was carried out for 15 minutes in the shaking water bath at 37° C. Subsequently, the samples were transferred in ultra-filtration units (Vivaspin 500, 10 kDa cut-off) and centrifuged for 15 min at 10.000 rpm. The filtrate was analyzed by HPLC. In addition, a control was run for each concentration, which was not treated with protein and not centrifuged.

[3] = physchem; type: physicochemical; settings: thermodynamic from solid
Protocol: 2. Solubility Assays of the Compounds Tested
Determining the Solubility at Different pH Values:
Therefor, a few mg of the compounds were weighed and mixed with the volume of 50 mM KH2PO4 buffer of respective pH value for a 50 mM solution. […] Subsequently, the undissolved portion was removed by centrifugation at 10.000 rpm for 15 min, and the concentration in the supernatant was determined by HPLC.

Chain of albumin (P02768 25-609): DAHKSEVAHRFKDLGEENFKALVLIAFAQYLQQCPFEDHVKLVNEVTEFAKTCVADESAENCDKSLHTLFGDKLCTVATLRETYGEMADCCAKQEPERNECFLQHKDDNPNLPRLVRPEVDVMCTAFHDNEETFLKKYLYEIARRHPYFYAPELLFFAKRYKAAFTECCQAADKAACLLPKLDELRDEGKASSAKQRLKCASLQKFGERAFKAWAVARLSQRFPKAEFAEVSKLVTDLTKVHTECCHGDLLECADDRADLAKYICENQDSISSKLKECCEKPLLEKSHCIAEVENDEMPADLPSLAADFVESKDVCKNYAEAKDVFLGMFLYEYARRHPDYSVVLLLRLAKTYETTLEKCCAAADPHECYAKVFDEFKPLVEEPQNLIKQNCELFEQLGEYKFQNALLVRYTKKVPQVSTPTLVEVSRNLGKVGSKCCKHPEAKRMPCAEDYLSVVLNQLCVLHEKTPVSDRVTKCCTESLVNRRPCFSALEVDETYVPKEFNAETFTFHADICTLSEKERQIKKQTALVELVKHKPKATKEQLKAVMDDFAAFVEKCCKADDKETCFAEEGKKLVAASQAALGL

## CCOC(=O)C1=C[C@@H](OC(CC)CC)[C@H](NC(C)=O)[C@@H](NC(=N)N)C1 [Compound 10]
[1]
  Bioavailability: 1.1%
[2]
  Protein binding: 30.1 ± 2.3%
[3]; aqueous buffer
  solubility at 30 min: > 50 mM
[3]; pH 2, aqueous buffer
  solubility at 30 min: > 23400 µg/mL and > 50000 µM
[3]; pH 7.4, aqueous buffer
  solubility at 30 min: > 23400 µg/mL and > 50000 µM
[3]; pH 9, aqueous buffer
  solubility at 30 min: > 23400 µg/mL and > 50000 µM

## CCOC(=O)C1=C[C@@H](OC(CC)CC)[C@H](NC(C)=O)[C@@H](NC(N)=NO)C1 [Compound 6, (3R,4R,5S)-4-acetamido-[N—(N′ hydroxy)guanidino]-3-(1-ethylpropoxy)cyclohex-1-en-1-carboxylic acid ethyl ester]
[1]
  Bioavailability: 1.7%
[1]; 0 min
  Plasma level of derivative 9 (Conc.) after oral administration of the labelled derivative: 0 nM
  Plasma level of intermediary metabolite 12 (Conc.) after oral administration of derivative 6: 0 nM
[1]; 30 min
  Plasma level of derivative 9 (Conc.) after oral administration of the labelled derivative: 200 nM
  Plasma level of intermediary metabolite 12 (Conc.) after oral administration of derivative 6: 200 nM
[1]; 60 min
  Plasma level of derivative 9 (Conc.) after oral administration of the labelled derivative: 220 nM
  Plasma level of intermediary metabolite 12 (Conc.) after oral administration of derivative 6: 160 nM
[1]; 90 min
  Plasma level of derivative 9 (Conc.) after oral administration of the labelled derivative: 180 nM
  Plasma level of intermediary metabolite 12 (Conc.) after oral administration of derivative 6: 200 nM
[1]; 120 min
  Plasma level of derivative 9 (Conc.) after oral administration of the labelled derivative: 190 nM
  Plasma level of intermediary metabolite 12 (Conc.) after oral administration of derivative 6: 190 nM
[1]; 180 min
  Plasma level of derivative 9 (Conc.) after oral administration of the labelled derivative: 210 nM
  Plasma level of intermediary metabolite 12 (Conc.) after oral administration of derivative 6: 80 nM
[1]; 240 min
  Plasma level of derivative 9 (Conc.) after oral administration of the labelled derivative: 180 nM
  Plasma level of intermediary metabolite 12 (Conc.) after oral administration of derivative 6: 10 nM
[1]; 360 min
  Plasma level of derivative 9 (Conc.) after oral administration of the labelled derivative: 50 nM
  Plasma level of intermediary metabolite 12 (Conc.) after oral administration of derivative 6: 0 nM
[2]
  Protein binding: 37.5 ± 10.1%
[3]; aqueous buffer
  solubility at 30 min: > 50 mM
[3]; pH 2, aqueous buffer
  solubility at 30 min: > 18500 µg/mL and > 50000 µM
[3]; pH 7.4, aqueous buffer
  solubility at 30 min: > 18500 µg/mL and > 50000 µM
[3]; pH 9, aqueous buffer
  solubility at 30 min: > 18500 µg/mL and > 50000 µM
